In PubChem BioAssay AID1963439 (Molecular Pharmacology Branch, DTP, NCI, 2024):

Test system: NCI-H196 complex spheroids with HUVEC/MSC, growth % T/C
Assay: Anticancer human tumor NCI-H196 cell line growth inhibition [Asc];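 note: spheroids exposed to compound for 7 days before measurement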;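 for viability, T/C: 100% = DMSO vehicle control wells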
Settings: for IC50: curve of first compound; for viability, T/C: stronger effect = lower value
How it was run: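 Complex solid-tumor spheroids incorporating human endothelial and mesenchymal stem cells received single agents or combinations over half-log dilution ranges anchored to clinical Cmax.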

[1] = second compound 0.01 µM, first compound 0.0316 µM
[2] = second compound 0.01 µM, first compound 0.1 µM
[3] = second compound 0.01 µM, first compound 0.316 µM
[4] = second compound 0.01 µM, first compound 1 µM
[5] = second compound 0.0316 µM, first compound 0.0316 µM
[6] = second compound 0.0316 µM, first compound 0.1 µM
[7] = second compound 0.0316 µM, first compound 0.316 µM
[8] = second compound 0.0316 µM, first compound 1 µM
[9] = second compound 0.1 µM, first compound 0.0316 µM
[10] = second compound 0.1 µM, first compound 0.1 µM
[11] = second compound 0.1 µM, first compound 0.316 µM
[12] = second compound 0.1 µM, first compound 1 µM
[13] = second compound 0.316 µM, first compound 0.0316 µM
[14] = second compound 0.316 µM, first compound 0.1 µM
[15] = second compound 0.316 µM, first compound 0.316 µM
[16] = second compound 0.316 µM, first compound 1 µM
[17] = second compound 1 µM, first compound 0.0316 µM
[18] = second compound 1 µM, first compound 0.1 µM
[19] = second compound 1 µM, first compound 0.316 µM
[20] = second compound 1 µM, first compound 1 µM
[21] = second compound 0.01 µM, first compound 0.00316 µM
[22] = second compound 0.01 µM, first compound 0.01 µM
[23] = second compound 0.0316 µM, first compound 0.00316 µM
[24] = second compound 0.0316 µM, first compound 0.01 µM
[25] = second compound 0.1 µM, first compound 0.00316 µM
[26] = second compound 0.1 µM, first compound 0.01 µM
[27] = second compound 0.316 µM, first compound 0.00316 µM
[28] = second compound 0.316 µM, first compound 0.01 µM
[29] = second compound 1 µM, first compound 0.00316 µM
[30] = second compound 1 µM, first compound 0.01 µM

C=CC(=O)N1CCN(c2nc(=O)n(-c3c(C)ccnc3C(C)C)c3nc(-c4c(O)cccc4F)c(F)cc23)C(C)C1 (stereo not given) + CNC(C)C(=O)NC1CN(S(=O)(=O)c2cccc(S(=O)(=O)N3CCC4CCC(C(=O)NC(c5ccccc5)c5ccccc5)N4C(=O)C(NC(=O)C(C)NC)C3)c2)CCC2CCC(C(=O)NC(c3ccccc3)c3ccccc3)N2C1=O
IC50 (second compound 0.01 µM): < 31.6 nM
IC50 (second compound 0.0316 µM): < 31.6 nM
IC50 (second compound 0.1 µM): < 31.6 nM
IC50 (second compound 0.316 µM): < 31.6 nM
IC50 (second compound 1 µM): < 31.6 nM
viability, T/C [1]: 8.2%
viability, T/C [2]: 7.68%
viability, T/C [3]: 5.38%
viability, T/C [4]: 6.44%
viability, T/C (second compound 0.01 µM, first compound 3.16 µM): 8.71%
viability, T/C (second compound 0.01 µM, first compound 10 µM): 9.87%
viability, T/C [5]: 3.84%
viability, T/C [6]: 5.12%
viability, T/C [7]: 5.38%
viability, T/C [8]: 8.69%
viability, T/C (second compound 0.0316 µM, first compound 3.16 µM): 6.93%
viability, T/C (second compound 0.0316 µM, first compound 10 µM): 7.56%
viability, T/C [9]: 3.27%
viability, T/C [10]: 3.83%
viability, T/C [11]: 3.69%
viability, T/C [12]: 4.2%
viability, T/C (second compound 0.1 µM, first compound 3.16 µM): 7.47%
viability, T/C (second compound 0.1 µM, first compound 10 µM): 9.85%
viability, T/C [13]: 3.58%
viability, T/C [14]: 3.64%
viability, T/C [15]: 6.15%
viability, T/C [16]: 3.67%
viability, T/C (second compound 0.316 µM, first compound 3.16 µM): 4.47%
viability, T/C (second compound 0.316 µM, first compound 10 µM): 6.52%
viability, T/C [17]: 3.22%
viability, T/C [18]: 3.89%
viability, T/C [19]: 3.25%
viability, T/C [20]: 3.51%
viability, T/C (second compound 1 µM, first compound 3.16 µM): 5.33%
viability, T/C (second compound 1 µM, first compound 10 µM): 9.94%

COc1c(OCCCN2CCOCC2)ccc2c3n(c(=NC(=O)c4cnc(N)nc4)nc12)CCN3 + CNC(C)C(=O)NC1CN(S(=O)(=O)c2cccc(S(=O)(=O)N3CCC4CCC(C(=O)NC(c5ccccc5)c5ccccc5)N4C(=O)C(NC(=O)C(C)NC)C3)c2)CCC2CCC(C(=O)NC(c3ccccc3)c3ccccc3)N2C1=O
IC50 (second compound 0.01 µM): < 3.16 nM
IC50 (second compound 0.0316 µM): < 3.16 nM
IC50 (second compound 0.1 µM): < 3.16 nM
IC50 (second compound 0.316 µM): < 3.16 nM
IC50 (second compound 1 µM): < 3.16 nM
viability, T/C [21]: 5.54%
viability, T/C [22]: 4.98%
viability, T/C [1]: 5.78%
viability, T/C [2]: 6.94%
viability, T/C [3]: 10.4%
viability, T/C [4]: 12.5%
viability, T/C [23]: 4.98%
viability, T/C [24]: 5.47%
viability, T/C [5]: 4.38%
viability, T/C [6]: 4.6%
viability, T/C [7]: 5.64%
viability, T/C [8]: 9.69%
viability, T/C [25]: 2.54%
viability, T/C [26]: 3.24%
viability, T/C [9]: 3.31%
viability, T/C [10]: 2.53%
viability, T/C [11]: 5.11%
viability, T/C [12]: 4.24%
viability, T/C [27]: 3.55%
viability, T/C [28]: 2.22%
viability, T/C [13]: 1.86%
viability, T/C [14]: 3.02%
viability, T/C [15]: 3.25%
viability, T/C [16]: 3.07%
viability, T/C [29]: 2.39%
viability, T/C [30]: 2.16%
viability, T/C [17]: 2.41%
viability, T/C [18]: 2.12%
viability, T/C [19]: 1.61%
viability, T/C [20]: 2.15%

NC(=O)C(=Cn1cnc(-c2cc(C(F)(F)F)cc(C(F)(F)F)c2)n1)c1cncnc1 + CNC(C)C(=O)NC1CN(S(=O)(=O)c2cccc(S(=O)(=O)N3CCC4CCC(C(=O)NC(c5ccccc5)c5ccccc5)N4C(=O)C(NC(=O)C(C)NC)C3)c2)CCC2CCC(C(=O)NC(c3ccccc3)c3ccccc3)N2C1=O
IC50 (second compound 0.01 µM): < 0.949 nM
IC50 (second compound 0.0316 µM): < 0.949 nM
IC50 (second compound 0.1 µM): < 0.949 nM
IC50 (second compound 0.316 µM): < 0.949 nM
IC50 (second compound 1 µM): < 0.949 nM
viability, T/C (second compound 0.01 µM, first compound 0.000949 µM): 9.08%
viability, T/C (second compound 0.01 µM, first compound 0.003 µM): 6.89%
viability, T/C (second compound 0.01 µM, first compound 0.00949 µM): 9.23%
viability, T/C (second compound 0.01 µM, first compound 0.03 µM): 5%
viability, T/C (second compound 0.01 µM, first compound 0.0949 µM): 6.27%
viability, T/C (second compound 0.01 µM, first compound 0.3 µM): 3.41%
viability, T/C (second compound 0.0316 µM, first compound 0.000949 µM): 5.94%
viability, T/C (second compound 0.0316 µM, first compound 0.003 µM): 4.91%
viability, T/C (second compound 0.0316 µM, first compound 0.00949 µM): 5.48%
viability, T/C (second compound 0.0316 µM, first compound 0.03 µM): 5.12%
viability, T/C (second compound 0.0316 µM, first compound 0.0949 µM): 4.08%
viability, T/C (second compound 0.0316 µM, first compound 0.3 µM): 1.99%
viability, T/C (second compound 0.1 µM, first compound 0.000949 µM): 3.66%
viability, T/C (second compound 0.1 µM, first compound 0.003 µM): 3.77%
viability, T/C (second compound 0.1 µM, first compound 0.00949 µM): 3.89%
viability, T/C (second compound 0.1 µM, first compound 0.03 µM): 4.03%
viability, T/C (second compound 0.1 µM, first compound 0.0949 µM): 3.01%
viability, T/C (second compound 0.1 µM, first compound 0.3 µM): 1.56%
viability, T/C (second compound 0.316 µM, first compound 0.000949 µM): 3.76%
viability, T/C (second compound 0.316 µM, first compound 0.003 µM): 2.6%
viability, T/C (second compound 0.316 µM, first compound 0.00949 µM): 3.46%
viability, T/C (second compound 0.316 µM, first compound 0.03 µM): 3.21%
viability, T/C (second compound 0.316 µM, first compound 0.0949 µM): 1.59%
viability, T/C (second compound 0.316 µM, first compound 0.3 µM): 1.68%
viability, T/C (second compound 1 µM, first compound 0.000949 µM): 2.91%
viability, T/C (second compound 1 µM, first compound 0.003 µM): 3.81%
viability, T/C (second compound 1 µM, first compound 0.00949 µM): 3.53%
viability, T/C (second compound 1 µM, first compound 0.03 µM): 5.05%
viability, T/C (second compound 1 µM, first compound 0.0949 µM): 2.15%
viability, T/C (second compound 1 µM, first compound 0.3 µM): 1.55%

NC1CCC(NC2CC2c2ccccc2)CC1 (stereo not given) + CNC(C)C(=O)NC1CN(S(=O)(=O)c2cccc(S(=O)(=O)N3CCC4CCC(C(=O)NC(c5ccccc5)c5ccccc5)N4C(=O)C(NC(=O)C(C)NC)C3)c2)CCC2CCC(C(=O)NC(c3ccccc3)c3ccccc3)N2C1=O
IC50 (second compound 0.01 µM): < 0.316 nM
IC50 (second compound 0.0316 µM): < 0.316 nM
IC50 (second compound 0.1 µM): < 0.316 nM
IC50 (second compound 0.316 µM): < 0.316 nM
IC50 (second compound 1 µM): < 0.316 nM
viability, T/C (second compound 0.01 µM, first compound 0.000316 µM): 4.85%
viability, T/C (second compound 0.01 µM, first compound 0.001 µM): 7.42%
viability, T/C [21]: 7.08%
viability, T/C [22]: 4.94%
viability, T/C [1]: 4.47%
viability, T/C [2]: 5.83%
viability, T/C (second compound 0.0316 µM, first compound 0.000316 µM): 3.28%
viability, T/C (second compound 0.0316 µM, first compound 0.001 µM): 3.9%
viability, T/C [23]: 6.09%
viability, T/C [24]: 4.65%
viability, T/C [5]: 4.22%
viability, T/C [6]: 4.12%
viability, T/C (second compound 0.1 µM, first compound 0.000316 µM): 3.22%
viability, T/C (second compound 0.1 µM, first compound 0.001 µM): 3.76%
viability, T/C [25]: 3.15%
viability, T/C [26]: 3.8%
viability, T/C [9]: 2.91%
viability, T/C [10]: 5.63%
viability, T/C (second compound 0.316 µM, first compound 0.000316 µM): 3.14%
viability, T/C (second compound 0.316 µM, first compound 0.001 µM): 3.25%
viability, T/C [27]: 3.34%
viability, T/C [28]: 2.68%
viability, T/C [13]: 2.82%
viability, T/C [14]: 2.95%
viability, T/C (second compound 1 µM, first compound 0.000316 µM): 3.04%
viability, T/C (second compound 1 µM, first compound 0.001 µM): 4.43%
viability, T/C [29]: 3.1%
viability, T/C [30]: 3.47%
viability, T/C [17]: 3.24%
viability, T/C [18]: 2.28%
